Assay results as given in patent publication US20240124439A1, “Pyrido[2,3-D]Imidazole Derivatives and Their Use As Inhibitors of ITK for the Treatment of Skin Disease” (Pfizer Inc., priority 2020, published 2024).

Experiments:
[1] = molecular target: IL-2-Inducible T-Cell Kinase (ITK) (Homo sapiens (Human), UniProt Q08881); experiment: ITK enzyme assay (IL-2-inducible T-cell kinase activity); assay type: biochemical; settings: geometric mean of count n
Outline: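 Full-length N-Flag/C-His human ITK, pre-incubated 30 min at RT with compound. Reaction in HEPES pH 7.5 buffer with MgCl2, glutathione, gelatin and Brij-35, started with BTK peptide substrate, 60 min at RT. EDTA stop, PT66/APC TR-FRET detection overnight; IC50 fitted by four-parameter logistic.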

[2] = tested on: activated CD4+ human T-cells (IL-2); experiment: IL-2 inhibition in supernatants from activated CD4+ human T-cells (cisbio HTRF); assay type: cell-based; settings: T-cell; CD3/CD28-activated CD4+ human T cells, ImmunoCult stimulation 20 to 24 hrs; geometric mean of count n
Outline: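 Primary human CD4+ T cells activated with CD3/CD28 for 3 days and expanded to 7-9 days total, plated at 30,000 cells/well. Cells preincubated 15 min with compound, then stimulated with ImmunoCult (1:50 final) for 20-24 h at 37° C. Supernatant IL-2 measured by HTRF (665/615 nm); IC50 from four-parameter logistic fit.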

Sequence of IL-2-Inducible T-Cell Kinase (ITK) (Q08881 whole entry): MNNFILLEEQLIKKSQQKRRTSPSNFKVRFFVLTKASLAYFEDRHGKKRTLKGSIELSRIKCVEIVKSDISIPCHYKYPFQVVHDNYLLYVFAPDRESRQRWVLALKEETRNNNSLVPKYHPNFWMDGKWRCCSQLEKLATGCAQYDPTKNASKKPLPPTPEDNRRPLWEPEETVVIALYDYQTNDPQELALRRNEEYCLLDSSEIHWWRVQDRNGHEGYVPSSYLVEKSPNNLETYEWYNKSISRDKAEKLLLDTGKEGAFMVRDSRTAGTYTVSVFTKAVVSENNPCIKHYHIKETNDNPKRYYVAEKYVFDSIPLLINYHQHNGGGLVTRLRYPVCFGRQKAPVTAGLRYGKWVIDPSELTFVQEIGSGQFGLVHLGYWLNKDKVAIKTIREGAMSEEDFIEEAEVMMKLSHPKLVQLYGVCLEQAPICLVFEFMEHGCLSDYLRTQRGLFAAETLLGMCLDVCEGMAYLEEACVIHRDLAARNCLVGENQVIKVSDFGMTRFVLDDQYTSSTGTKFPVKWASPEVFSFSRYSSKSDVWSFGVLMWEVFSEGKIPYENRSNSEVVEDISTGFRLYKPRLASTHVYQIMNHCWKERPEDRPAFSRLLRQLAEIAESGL

Structure (SMILES)	IC50 [1]	IC50 [2]
CN(C(=O)C1(C)CCOCC1)c1cnc2nc(-c3n[nH]c4c3C[C@@H]3C[C@]3(C)C4)[nH]c2c1 [Example 70, N,4-Dimethyl-N-(2-((4aS,5aR)-5a-methyl-1,4,4a,5,5a,6-hexahydrocyclopropa[f]indazol-3-yl)-1H-imidazo[4,5-b]pyridin-6-yl)tetrahydro-2H-pyran-4-carboxamide]	93 nM	462 nM
CCCC(=O)N(C)c1cnc2nc(-c3n[nH]c4c3C[C@@H]3C[C@]3(C)C4)[nH]c2c1 [Example 71, N-Methyl-N-(2-((4aS,5aR)-5a-methyl-1,4,4a,5,5a,6-hexahydrocyclopropa[f]indazol-3-yl)-1H-imidazo[4,5-b]pyridin-6-yl)butyramide]	42 nM	313 nM
CC(C)CC(=O)N(C)c1cnc2nc(-c3n[nH]c4c3C[C@@H]3C[C@]3(C)C4)[nH]c2c1 [Example 72, N,3-Dimethyl-N-(2-((4aS,5aR)-5a-methyl-1,4,4a,5,5a,6-hexahydrocyclopropa[f]indazol-3-yl)-1H-imidazo[4,5-b]pyridin-6-yl)butanamide]	39 nM	248 nM
CN(C(=O)CC(C)(C)C)c1cnc2nc(-c3n[nH]c4c3C[C@@H]3C[C@]3(C)C4)[nH]c2c1 [Example 73, N,3,3-Trimethyl-N-(2-((4aS,5aR)-5a-methyl-1,4,4a,5,5a,6-hexahydrocyclopropa[f]indazol-3-yl)-1H-imidazo[4,5-b]pyridin-6-yl)butanamide]	57 nM	498 nM

Second part, the compound after the results:

IC50 [1]	IC50 [2]	Structure (SMILES)
50 nM	311 nM	CC(C)CCC(=O)N(C)c1cnc2nc(-c3n[nH]c4c3C[C@@H]3C[C@]3(C)C4)[nH]c2c1 [Example 74, N,4-Dimethyl-N-(2-((4aS,5aR)-5a-methyl-1,4,4a,5,5a,6-hexahydrocyclopropa[f]indazol-3-yl)-1H-imidazo[4,5-b]pyridin-6-yl)pentanamide]
57 nM	862 nM	CC(=O)N(CC(=O)N(C)c1cnc2nc(-c3n[nH]c4c3C[C@@H]3C[C@]3(C)C4)[nH]c2c1)C(C)C [Example 75, 2-(N-Isopropylacetamido)-N-methyl-N-(2-((4aS,5aR)-5a-methyl-1,4,4a,5,5a,6-hexahydrocyclopropa[f]indazol-3-yl)-1H-imidazo[4,5-b]pyridin-6-yl)acetamide]
51 nM	389 nM	CCC(C)CC(=O)N(C)c1cnc2nc(-c3n[nH]c4c3C[C@@H]3C[C@]3(C)C4)[nH]c2c1 (stereo partly drawn) [Example 76, N,3-Dimethyl-N-(2-((4aS,5aR)-5a-methyl-1,4,4a,5,5a,6-hexahydrocyclopropa[f]indazol-3-yl)-1H-imidazo[4,5-b]pyridin-6-yl)pentanamide]
27 nM	247 nM	CN(C(=O)CC1CCC1)c1cnc2nc(-c3n[nH]c4c3C[C@@H]3C[C@]3(C)C4)[nH]c2c1 [Example 77, 2-Cyclobutyl-N-methyl-N-(2-((4aS,5aR)-5a-methyl-1,4,4a,5,5a,6-hexahydrocyclopropa[f]indazol-3-yl)-1H-imidazo[4,5-b]pyridin-6-yl)acetamide]
35 nM	552 nM	CC(C)C(=O)N(C)CC(=O)N(C)c1cnc2nc(-c3n[nH]c4c3C[C@@H]3C[C@]3(C)C4)[nH]c2c1 [Example 78, N-Methyl-N-(2-(methyl(2-((4aS,5aR)-5a-methyl-1,4,4a,5,5a,6-hexahydrocyclopropa[f]indazol-3-yl)-1H-imidazo[4,5-b]pyridin-6-yl)amino)-2-oxoethyl)isobutyramide]
43 nM	1590 nM	CN(C(=O)CN1CCCCC1=O)c1cnc2nc(-c3n[nH]c4c3C[C@@H]3C[C@]3(C)C4)[nH]c2c1 [Example 79, N-Methyl-N-(2-((4aS,5aR)-5a-methyl-1,4,4a,5,5a,6-hexahydrocyclopropa[f]indazol-3-yl)-1H-imidazo[4,5-b]pyridin-6-yl)-2-(2-oxopiperidin-1-yl)acetamide]
